Results taken from patent publication US20220160712A1, “METHODS OF TREATING RHEUMATOID ARTHRITIS AND FOR PREDICTING THE RESPONSE TO METHOTREXATE” (CHAN ZUCKERBERG BIOHUB, INC., priority 2020, published 2022).

What was measured:
[1] = MTX 1 mg/kg or 50 mg/kg daily, short treatment durations (2-4 days)
Description: C57BL/6J mice (females, ages 6-16 weeks) were obtained from the UCSF Gnotobiotics core facility (gnotobiotics.ucsf.edu) and housed in gnotobiotic isolators for the duration of each experiment (Class Biologically Clean). […] Housing: Mice were co-housed in some experiments, distributed across multiple cages per treatment group, or individually housed. Individually housed mice were housed in Single Mouse Duplexed Cages (Thoren, Cat #15). Colonization: Mice were colonized with stool from human donors, either a healthy male donor or a treatment-naive (re-MTX) female and male donors with rheumatoid arthritis [as defined by American College of Rheumatology classification criteria, either (Arnett, F. C., et al. (1988), Arthritis Rheum 31, 315-324) or (Aletaha, D., et al. (2010), Arthritis Rheum 62, 2569-2581)]; samples obtained 1 month after starting MTX were used for “post-MTX” transplants. For colonization with a human microbiome, stool was diluted 1:10 g/mL in reduced PBS or saline and homogenized in an anaerobic chamber using pre-equilibrated reagents and supplies. Insoluble material was separated from supernatant by centrifugation at 50 g for 1 minute. Aliquots of supernatant (100-200 μl per mouse) were gavaged into mice. […] Mice were monitored and weighed daily during treatment. […]

[2] = test system: B. theta and C. asparagiforme; experiment: Untargeted metabolomics of in vitro cultures; type: cell-based, Bacteroides thetaiotaomicron; Clostridium asparagiforme
Description: As described in the in vitro bacterial growth studies, 48-hour overnight cultures were grown in an anaerobic chamber in liquid BHI+for the following isolates: Bacteroidetes thetaiotaomicron and Clostridium asparagiforme. Each subculture was diluted down to an OD600 of 0.08-0.1, which was then further diluted 100-fold, and then used to inoculate a 96-well 2-ml deep well plate with 100 μg/ml MTX (n=6 replicates per isolate) (Sigma, Cat #M9929) or DMSO (n=2 replicates per isolate). After 24 hours, aliquots were removed, centrifuged on a tabletop centrifuge at 4° C. for 5 minutes at ˜2000 rcf, and supernatant was prepared for extraction and untargeted LC-MS as described.
Extraction was done in 96 well plates. In brief, 60 μL of the supernatant from the 96 well culture plate was added to 120 μL of pre-cooled methanol/acetonitrile (1:1, v/v) in a non-sterile 96 well plate. The samples were then incubated at −20° C. for 1 hour. After incubation, samples were mixed at 4° C. at 650 rpm using small block tube shaker. The plates were then centrifuged at 3000 rpm for 10 minutes. After centrifugation, using multi-channel pipette, 80 μL of supernatant from each well was transferred to non-sterile 96 well polypropylene plate and then sealed with pre-slit silicone mat. A 1:1:1 mix of LC-MS grade H2O, LC-MS grade acetonitrile and LC-MS grade methanol was used as blank.
Samples (5 μl) were separated by hydrophilic interaction chromatography HPLC using a Vanquish UHPLC system (Thermo Fisher Scientific, Waltham, MA) with a Waters (Milford, MA) Acquity UPLC BEH Amide Column (2.1×100 mm×1.7 μm particle size) maintained at 65° C. and a 17 minute gradient, at a flow rate of 400 μl/min. […]
The raw data were converted into mzML format using ProteoWizard v3.0. Converted HILIC files were then analyzed using MS-DIAL v4.16 for deconvolution, peak detection, alignment, and identification (Parameters file can be provided upon request). […]

[3] = MTX 100 μg/ml, 24 hours, padj<0.01, two-factor ANOVA with BH correction

For `CN(Cc1cnc2nc(N)nc(N)c2n1)c1ccc(C(=O)N[C@@H](CCC(=O)O)C(=O)O)cc1` [MTX, methotrexate], the weight loss [1] was “minimal weight loss”, the “levels of AMP, adenine, hypoxanthine and guanine relative to vehicle control” value ([2]; C. asparagiforme, 24 hours of treatment, AMP decreased, the rest increased, Wilcoxon rank sum) was “these differences were not statistically significant” and the “number of metabolic features that changed similarly in the two isolates” value [2, 3] was 418. The “number of metabolic features that differed by species” value [2, 3] was 220.
